Assay results: patent US12281149B2, “Modulators of G-protein coupled receptors” (priority 2021, dated 2025)
*1 amine or outer side, *2 acyl side, *3 side chain or, on linkers, in order; H or OH if unused. Where a SMILES comes first, the peptide text is derived from it. Side-chain parts run from the residue outwards. [ ]: non-standard residue; d: D form. The star is where a group is joined. Isobutyryl(2-(3-CN-5-F-Ph)) = CC(C)(C(=O)*)c1cc(F)cc(C#N)c1; C20 diacid = O=C(O)CCCCCCCCCCCCCCCCCCC(=O)*; αMePhe(2-F) = C[C@](N)(Cc1ccccc1F)C(=O)O; γGlu = O=C(O)[C@H](CCC(=O)[*:2])N[*:1]; X84 = O=C([C@H]1CCCN([*:1])C1)[*:2]; AEEA = NCCOCCOCC(=O)O; Aib = CC(C)(N)C(=O)O; βAla = NCCC(=O)O

Assays:
Type in all cases: cell-based
[1] = biological target: T1, GLP-1 receptor (Homo sapiens, UniProt P43220); assay: HitHunter cAMP assay, GLP-1 receptor; conditions: for EC50: CHO cells stably expressing human GLP-1 receptor, cAMP accumulation, 30 min, read-out: EC50 GLP-1R; for Emax: CHO cells, cAMP, normalized to maximum signal from GLP-1 (high) and DMSO (low), read-out: Emax GLP-1R
[2] = biological target: T2, GIP receptor (Homo sapiens, UniProt P48546); assay: HitHunter cAMP assay, GIP receptor; conditions: for EC50: CHO cells stably expressing GIP receptor, cAMP accumulation, 30 min, read-out: EC50 GIP-1R
T2 sequence (P48546 22-466): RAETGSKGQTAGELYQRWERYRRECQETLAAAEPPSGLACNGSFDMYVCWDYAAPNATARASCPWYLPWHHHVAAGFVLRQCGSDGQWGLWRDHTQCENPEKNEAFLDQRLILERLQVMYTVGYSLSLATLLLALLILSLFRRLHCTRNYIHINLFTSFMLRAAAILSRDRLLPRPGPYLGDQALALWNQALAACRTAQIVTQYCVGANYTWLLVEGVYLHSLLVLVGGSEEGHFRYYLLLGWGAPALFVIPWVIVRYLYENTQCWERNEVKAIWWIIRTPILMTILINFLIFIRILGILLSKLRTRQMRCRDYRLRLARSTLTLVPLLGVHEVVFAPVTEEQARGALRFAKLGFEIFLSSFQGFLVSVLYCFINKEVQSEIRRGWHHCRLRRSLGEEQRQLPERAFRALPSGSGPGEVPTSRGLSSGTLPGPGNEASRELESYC

[3] = biological target: T2, GIP receptor; assay: PathHunter β-arrestin assay, GIP receptor; design: host or cells: PathHunter CHO-K1 GIPR β-Arrestin Cell Line; conditions: β-arrestin-2 recruitment, PathHunter CHO-K1 GIPR β-Arrestin Cell Line, 90 min at 37° C.; normalized to GIP; read-out: GIPR β Arrestin EC50
[4] = biological target: T1, GLP-1 receptor; assay: PathHunter β-arrestin assay, GLP-1 receptor; design: host or cells: PathHunter CHO-K1 GLP1R β-Arrestin Cell Line; conditions: β-arrestin-2 recruitment, PathHunter CHO-K1 GLP1R β-Arrestin Cell Line, 90 min at 37° C.; normalized to GLP-1; read-out: GLP-1R β Arrestin EC50

T1 sequence (P43220 24-463): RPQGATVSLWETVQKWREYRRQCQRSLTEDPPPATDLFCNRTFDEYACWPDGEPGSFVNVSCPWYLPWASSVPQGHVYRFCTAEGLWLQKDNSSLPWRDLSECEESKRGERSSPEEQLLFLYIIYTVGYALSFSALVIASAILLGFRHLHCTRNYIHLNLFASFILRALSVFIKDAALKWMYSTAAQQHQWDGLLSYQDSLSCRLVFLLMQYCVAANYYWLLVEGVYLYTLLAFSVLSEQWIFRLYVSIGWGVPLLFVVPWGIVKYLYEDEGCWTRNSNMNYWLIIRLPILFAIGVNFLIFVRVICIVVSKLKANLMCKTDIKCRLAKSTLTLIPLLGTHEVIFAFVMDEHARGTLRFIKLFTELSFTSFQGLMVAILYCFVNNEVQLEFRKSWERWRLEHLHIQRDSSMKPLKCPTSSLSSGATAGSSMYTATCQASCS

SMILES	EC50 [1]	Emax [1]	EC50 [2]	EC50 [3]	EC50 [4]	Emax ([2]; CHO cells, cAMP, normalized to maximum signal from GIP (high) and DMSO (low), read-out: Emax GIP-1R)
CC[C@H](C)[C@H](NC(=O)[C@H](CC(C)C)NC(=O)[C@H](Cc1c[nH]c2ccccc12)NC(=O)[C@H](CCC(N)=O)NC(=O)[C@@H](NC(=O)[C@H](Cc1ccccc1)NC(=O)[C@H](C)NC(=O)[C@H](CCCCNC(=O)COCCOCCNC(=O)COCCOCCNC(=O)CC[C@H](NC(=O)CCCCCCCCCCCCCCCCCCC(=O)O)C(=O)O)NC(=O)[C@H](CCC(N)=O)NC(=O)[C@H](C)NC(=O)[C@@H](NC(=O)[C@H](CCCCN)NC(=O)[C@H](CC(=O)O)NC(=O)[C@H](CC(C)C)NC(=O)C(C)(C)NC(=O)[C@@H](NC(=O)[C@H](CO)NC(=O)[C@H](Cc1ccc(O)cc1)NC(=O)[C@H](CC(=O)O)NC(=O)[C@H](CO)NC(=O)[C@@H](NC(=O)[C@H](Cc1ccccc1)NC(=O)[C@@H](NC(=O)CNC(=O)[C@H](CCC(=O)O)NC(=O)[C@H]1CCCN(C(=O)C(C)(C)c2cc(F)cc(C#N)c2)C1)[C@@H](C)O)[C@@H](C)O)[C@@H](C)CC)[C@@H](C)CC)C(C)C)C(=O)N[C@@H](C)C(=O)NCC(=O)NCC(=O)N1CCC[C@H]1C(=O)N[C@@H](CO)C(=O)N[C@@H](CO)C(=O)NCC(=O)N[C@@H](C)C(=O)N1CCC[C@H]1C(=O)N1CCC[C@H]1C(=O)N1CCC[C@H]1C(=O)N[C@@H](CO)C(N)=O [Compound 212] ({Isobutyryl(2-(3-CN-5-F-Ph))}-[X84]EGTFTSDYSI[Aib]LDKIAQK([AEEA-AEEA-γGlu-C20 diacid])AFVQWLIAGGPSSGAPPPS-NH2)	10 to 100 nM	89%	> 1000 nM	> 1000 nM	> 1000 nM	–
CC[C@H](C)[C@H](NC(=O)[C@H](CC(C)C)NC(=O)[C@H](Cc1c[nH]c2ccccc12)NC(=O)[C@H](CCC(N)=O)NC(=O)[C@@H](NC(=O)[C@H](Cc1ccccc1)NC(=O)[C@H](C)NC(=O)[C@H](CCCCNC(=O)COCCOCCNC(=O)COCCOCCNC(=O)CC[C@H](NC(=O)CCCCCCCCCCCCCCCCCCC(=O)O)C(=O)O)NC(=O)[C@H](CCC(N)=O)NC(=O)[C@H](C)NC(=O)[C@@H](NC(=O)[C@H](CCCCN)NC(=O)[C@H](CC(=O)O)NC(=O)[C@H](CC(C)C)NC(=O)C(C)(C)NC(=O)[C@@H](NC(=O)[C@H](CO)NC(=O)[C@H](Cc1ccc(O)cc1)NC(=O)[C@H](CC(=O)O)NC(=O)[C@H](CO)NC(=O)[C@@H](NC(=O)[C@](C)(Cc1ccccc1F)NC(=O)[C@@H](NC(=O)CNC(=O)[C@H](CCC(=O)O)NC(=O)CCNC(=O)C(C)(C)c1cc(F)cc(C#N)c1)[C@@H](C)O)[C@@H](C)O)[C@@H](C)CC)[C@@H](C)CC)C(C)C)C(=O)N[C@@H](C)C(=O)NCC(=O)NCC(=O)N1CCC[C@H]1C(=O)N[C@@H](CO)C(=O)N[C@@H](CO)C(=O)NCC(=O)N[C@@H](C)C(=O)N1CCC[C@H]1C(=O)N1CCC[C@H]1C(=O)N1CCC[C@H]1C(=O)N[C@@H](CO)C(N)=O [Compound 245] ({Isobutyryl(2-(3-CN-5-F-Ph))-βAla}-EGT[αMePhe(2-F)]TSDYSI[Aib]LDKIAQK([AEEA-AEEA-γGlu-C20 diacid])AFVQWLIAGGPSSGAPPPS-NH2)	0.1 to 1 nM	122%	0.1 to 1 nM	< 1000 nM	> 1000 nM	90%
